Assay results taken from patent US11298347B2, “Methods of diagnosing and treating Tourette syndrome” (THE CHILDREN'S HOSPITAL OF PHILADELPHIA, priority 2015, dated 2022).

What was measured:
[1] = tested on: adenylate cyclase activity; conditions: Oka 1997; cited from earlier work
[2] = tested on: group I and group II/III mGluRs; conditions: in vitro studies (Hirouchi 2000); cited from earlier work
[3] = prior human studies; cited from earlier work
[4] = open-label Phase Ib clinical trial of NFC-1 in adolescent ADHD subjects with a genetic alteration in an mGluR network gene; type: in vivo, human
Method: An open-label Phase Ib clinical trial was conducted to investigate the safety, pharmacokinetics and efficacy of NFC-1 (fasoracetam monohydrate) in adolescent subjects between the ages of 12 and 17 previously diagnosed with ADHD who also had at least one genetic alteration in an mGluR network gene.
The study included 30 ADHD subjects who were between ages 12 and 17, of any ancestry or race, of weight within the 5th to 95th percentile for their age, and otherwise judged to be in good medical health. […] Seventeen of the 30 subjects have a CNV in a tier 1 mGluR network gene, while 7 subjects have a CNV in a tier 2 gene and 6 in a tier 3 gene.
Exclusion criteria comprised subjects suffering from a clinically significant illness, either mental or physical, that, in the investigator's opinion, might confound the results of the study or that might prevent them from completing the study, subjects that are pregnant or nursing, subjects that test positive for illicit drugs of that have a history of drug abuse, subjects that consume alcoholic beverages, or subjects for which the investigator is otherwise concerned regarding their compliance or suitability.
NFC-1 capsules of either 50 mg or 200 mg comprising fasoracetam monohydrate as active ingredient and placebo capsules comprising microcellulose were used for the study. The design of the trial was a phone screening (1 day), enrollment phase (1 to 2 days), a wash-out phase for subjects currently on ADHD medications (1-14 days), pharmacokinetic (PK) assessment (2 days), followed by a dose-escalation phase (35 days) and a follow-up phone visit approximately four weeks after the last dose, for a maximum of 127 days. All ADHD medications were discontinued during the wash-out phase prior to the study. The wash-out period for stimulants was 2-3 days and that for atomoxetine or noradrenergic agonists was 10-12 days. No new ADHD medications were started during the study.
A dose-escalation phase of the trial ran over a 5-week period, after the initial wash-out period and the PK and initial safety assessments. During week 1, all subjects were administered placebo capsules twice daily. After one week of placebo treatment, patients were started on 50 mg bid NFC-1 for 1 week. If safety and responsiveness data from prior dose level of fasoracetam indicated it was appropriate, subjects were then escalated to the next higher dose (100, 200, or 400 mg).
Of the 30 trial subjects, 3 received a maximum dose of 100 mg, 9 received a maximum dose of 200 mg, and the remaining 18 received a maximum dose of 400 mg.

[5] = cited from earlier work

Structure (SMILES)	adenylate cyclase activity by stimulating group II and III mGluRs [1]	adenylate cyclase activity through activation of group I mGluRs [1]	stimulation of mGluRs [2]	half-life [3] [h]	OCD symptoms during therapy ([4]; all eight subjects with symptoms of OCD)	dermatillomania symptoms ([4]; one subject with OCD and history of ear scratching)	bleeding ulcer from ear scratching ([4]; one subject with OCD and history of ear scratching (dermatillomania))	tics during therapy ([4]; two individuals with history of recurrent tics, 50-400 mg bid dose escalation)	safety and tolerability ([5]; Phase I-III clinical trials)	effects on psychiatric symptoms ([5]; Phase III data, cerebral infarct patients and adult dementia patients with cerebrovascular diseases)	efficacy in dementia ([5]; Phase III trials, dementia-related cognitive impairment)
O=C1CC[C@H](C(=O)N2CCCCC2)N1 [Fasoracetam, fasoracetam]	may also inhibit adenylate cyclase activity	may stimulate adenylate cyclase activity	can stimulate both group I and group II/III mGluRs	5 to 6.5	–	–	–	–	–	–	–
O=C1CC[C@H](C(=O)N2CCCCC2)N1 [NFC-1, fasoracetam monohydrate]	–	–	–	–	improved	reduced	healed	did not demonstrate tics	generally safe and well tolerated	beneficial effects	did not show sufficient efficacy
